# US5849326A, “Method for treating neuronal diseases via administration of 2-acylaminopropanol derivatives” (Seikagaku Corporation, priority 1993, dated 1998)
# Where “and” joins values, the source holds several entries; their conditions need not be identical. Equal entries are not always repeated.
# Legend:
# GM3 synthase = test: Enzyme activity in treated cerebral cortex culture: GM3 synthase; assay type: cell-based, rat; settings: culture treated with 15 μM for 40 hours
# Procedure: (§1) After the mixture was cultured for 40 hours, the resulting culture was harvested and pulverized in a homogenized buffer (50 mM Hepes, 0.32M sucrose) by using a chip type sonicator to prepare an enzyme source.
# After the mixture containing a reaction product was developed by a reverse phase thin layer plate, a portion corresponding to the reaction product was scratched off, and its radioactivity was counted.
# explants = test: Neurite-extending activity in explants (Example 6); assay type: cell-based; settings: cultured for 40 hours, FIG. 5
# Procedure: 1.6×10^5 cells/well of explants were sowed in a plate with 24 wells containing a DMEM medium. […] After the mixture was cultured for 40 hours, the resulting culture was fixed and then dyed with Coomassie, and nervous fibers extended to have a length which was longer than a diameter of […] were counted.
# [1] = test system: acyl-CoA: sphingosine N-acyltransferase; test: Enzyme activity in treated cerebral cortex culture: acyl-CoA: sphingosine N-acyltransferase; assay type: cell-based, rat; design: key: *: No accelerating activity; settings: culture treated with 15 μM for 40 hours
# Procedure: as §1
# 0.25 mM sphingosine and 0.45 mM ^14 C palmitoyl CoA (8.3×10^5cpm) were reacted in the presence of ATP (adenosine 5'-triphosphate). After ceramide which was a reaction product was subjected to solvent extraction, the extract was concentrated and evaporated to dryness, and its radioactivity was counted.
# [2] = test system: primary cultured rat cerebral neurocytes (hippocampal neurons); test: Neurite extension of primary cultured hippocampal neurocytes
# Procedure: Hippocampi of rat brains at the 0th day after birth were extracted aseptically, subjected to enzyme treatment with papain in the same manner as in Example 1 and then washed with a DF medium. […] After culture for 24 hours, the neurocytes were fixed by paraformaldehyde, and a degree of neurite extension was recorded by microphotographs and then observed.
# [3] = molecular target: T1, GlcCer (glucosylceramide) synthase (Rattus norvegicus, UniProt Q9R0E0); test: Enzyme activity in treated cerebral cortex culture: GlcCer synthase; assay type: cell-based; settings: culture treated with 15 μM for 40 hours; read-out: Accelerating activity when enzyme activity of control is defined as 100%: GlcCer-synthase
# T1 construct: primary culture of cerebral cortex tissue specimens of Wister albino rats; endogenous in cells; host or cells: primary culture of rat (Wistar) cerebral cortex, sonicated after 40 h with compound
# T1 sequence (Q9R0E0 1-394): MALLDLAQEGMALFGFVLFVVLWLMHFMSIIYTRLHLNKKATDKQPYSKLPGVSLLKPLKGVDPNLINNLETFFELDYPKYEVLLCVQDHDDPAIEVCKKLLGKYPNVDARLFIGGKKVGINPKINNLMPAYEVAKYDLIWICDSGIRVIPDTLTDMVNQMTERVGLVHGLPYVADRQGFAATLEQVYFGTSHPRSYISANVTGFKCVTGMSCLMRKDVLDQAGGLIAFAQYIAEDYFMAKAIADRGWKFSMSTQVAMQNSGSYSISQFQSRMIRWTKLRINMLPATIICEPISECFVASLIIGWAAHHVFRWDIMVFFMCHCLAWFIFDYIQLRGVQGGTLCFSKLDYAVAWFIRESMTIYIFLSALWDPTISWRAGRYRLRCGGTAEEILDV
# Procedure: as §1
# After ^3 H-GlcCer which was a reaction product was extracted with t-butyl methyl ether, the extract was concentrated and evaporated to dryness, and its radioactivity was measured.
# GD3 synthase = test: Enzyme activity in treated cerebral cortex culture: GD3 synthase; assay type: cell-based, rat; settings: culture treated with 15 μM for 40 hours; 2400 min, 15 µM
# Procedure: as §1
# GM3 as an acceptor substrate was reacted with 30 mM CMP-^14 C sialic acid (2.88×10^6 cpm) as a donor substrate. After the mixture containing a reaction product was developed by a reverse phase thin layer plate, a portion corresponding to the reaction product was scratched off, and its radioactivity was counted.
# [4] = test system: rat cerebral cortex neurocytes; test: Synapse formation measured as frequency of intracellular Ca2+ fluctuation; assay type: cell-based
# Text: Further, as a method of measuring synapse formation relatively simply and easily, there has been developed a multipoint observation system of Ca^2+ in neurocytes using Fura-2, and it has been confirmed that the number of synapse formation is in direct proportion to frequency of intracellular Ca^2+ fluctuation in synchronization therewith (Br. J. Pharmacol., 89, 191-198, 1986; Neurosci. Lett., 78, 69-74, 1987). We investigated influences of L-threo-FDMP and D-threo-PDMP exerted on synapse formation between rat cerebral cortex neurocytes by using this method, and the results are shown below.
# [5] = test system: LacCer (lactosylceramide) synthase; test: Enzyme activity in treated cerebral cortex culture: LacCer synthase; assay type: cell-based, rat; settings: culture treated with 15 μM for 40 hours
# Procedure: as §1
# GlcCer as an acceptor substrate was reacted with 0.315mM UDP (uridine diphosphate)-^3 H galactose (2.7×10^8 cpm) as a donor substrate. After the mixture containing ^3 H-LacCer which was a reaction product was developed by a silica gel thin layer plate, a portion corresponding to the reaction product was scratched off, and its radioactivity was counted.
# [6] = test system: primary cultured rat cerebral neurocytes; test: Ganglioside content (ganglioside-binding sialic acid) of primary cultured neurocytes; assay type: cell-based; settings: Rattus norvegicus, 72 h, culture for 3 days, control defined as 100%
# Procedure: Rat fetuses at the 18th day of pregnancy were taken out, and forebrain base portions of the fetuses were extracted aseptically and cut into small pieces by scissors. After the pieces were treated with papain (in a phosphate buffer containing 0.02% L-cysteine containing 180 U papain, 0.02% bovine serum albumin and 0.5% glucose, pH 7.4, at 37° C. for 30 minutes), they were washed with a mixed solution (DF medium) of 1:1 of a Dulbecco modified Eagle's medium and a Ham's F12 medium and suspended in a DF medium containing 5% bovine fetal serum and 5% equine serum. This neurocyte suspension was charged into a culture plate with 24 wells (Falcon, Primaria) in an amount of 1×10^6 cells/well. […] After completion of the culture, the cells in the respective wells were washed with a phosphate buffer and recovered by rubber policeman. Further, a ganglioside fraction was extracted by adding chloroform/methanol/water (1:2:0.8) and shaking the mixture for 5 minutes. […] The no addition group (control) which was defined as 100% was compared with the test groups, and the results are shown in Table 1.
# [7] = test system: cerebral cortexes of rat fetuses (explants); test: Explant culture of cerebral cortexes, neurocytes having neurites
# Text: The effect of neurite extension by administering the medicine after the culture was judged by measuring the number of neurocytes having neurites existing in the explants (the cultured tissues).
# [8] = test system: serine palmitoyltransferase; test: Enzyme activity in treated cerebral cortex culture: serine palmitoyltransferase; assay type: cell-based, rat; settings: culture treated with 15 μM for 40 hours
# Procedure: as §1
# 1.5 mM palmitoyl CoA (coenzyme A) and 0.1 mM ^14 C serine (8.3×10^5 cpm) were reacted in the presence of 0.5 mM pyridoxalphosphoric acid. After 3-keto-sphingosine which was a reaction product was extracted, the extract was concentrated and evaporated to dryness, and its radioactivity was counted.
# physchem = settings: physiological saline
# GSL = settings: J. Cell. Physiol., vol. 141, pp. 573-583 (1989); cited from earlier work
# ICR mice = test: General toxicity, continuous 10-day intraperitoneal administration; assay type: in vivo; settings: 100 mg/kg/day intraperitoneally for 10 days
smiles,measurement,setting,value
"CCCCCCCCCC(=O)N[C@@H](CN1CCOCC1)[C@@H](O)c1ccccc1 [L-threo-PDMP, 1-phenyl-2-decanoylamino-3-morpholino-1-propanol]",Accelerating activity when enzyme activity of control is defined as 100%: GM3 synthase,GM3 synthase,197.4%
same,concentration at which extension of neurites was the largest,explants,15 µM
same,minimal effective concentration,explants; read-out: concentration at which extension of neurites was observed,≥ 5 µM
same,Accelerating activity when enzyme activity of control is defined as 100%: Acyl-CoA: sphigosine N-acyltransferase,[1],*
same,neurite extension (microphotographs),"[2]; 5 μM, 20 μM and 40 μM, culture for 24 hours, FIG. 2",significant neurite-extending action
same,"lengths of the neurites, statistical processing","[2]; 1 to 40 μM, FIG. 3",accelerates neurite extension with a significant different of P<0.005
same,enzyme activity relative to control at 15 µM,[3],122%
same,Accelerating activity when enzyme activity of control is defined as 100%: GD3 synthase,GD3 synthase,300% and 302.5%
same,number of synapse formation (frequency of intracellular Ca2+ fluctuation),[4]; FIG. 4,increase in the number of synapse formation depending on a dose
same,concentration at which a pharmaceutical effect has been observed,"[4]; culture for 8 hours, neurocytes of cerebral cortexes of rat fetuses",40 µM
same,Accelerating activity when enzyme activity of control is defined as 100%: LacCer synthase,[5],243.3%
same,activity at 20 µM,[6],127%
same,number of neurocytes having neurites in the explants versus group to which no medicine was administered,"[7]; 10 μM, cultured for 2 days, medium containing no serum",about one and half times
same,concentration range in which a pharmaceutical effect has been observed,[7]; culture of cerebral cortex pieces of rat fetuses,5 to 20 µM
same,Accelerating activity when enzyme activity of control is defined as 100%: Serine palmitoyltransferase,[8],148.2%
same,solubility,physchem,≤ 500 µg/mL
same,biosynthesis of GSL,GSL,has possibility of accelerating biosynthesis of GSL
same,"decrease in weight / decrease in neutrophile, acidocyte due to suppression of bone marrow",ICR mice; in Myrj 52,"neither decrease in weight nor decrease in neutrophile, acidocyte, etc. due to suppression of bone marrow was observed"
same,abnormality on observation for 3 months,ICR mice; observation for 3 months,no abnormality was observed
